Test system: TNFα release from human peripheral blood mononuclear cells
Assay: Inhibition of LPS-stimulated TNFα release from human peripheral blood mononuclear cells (TNFα screen, ELISA)
Format: cell-based
Settings: LPS-stimulated human PBMC, 18 hours incubation, TNFα in supernatant by ELISA
Procedure: Venous blood is collected from healthy volunteers and the mononuclear cells purified by centrifugation through Histopaque (Ficoll) cushions. TNFα production from these cells is stimulated by addition of lipopolysaccharide. After 18 hours incubation in the presence of LPS, the cell supernatant is removed and the concentration of TNFα in the supernatant determined by ELISA.

IC50: 14 nM
SMILES: O=C(N[C@H]1CC[C@@H](NC(=O)c2cc(Cl)cc(Cl)c2O)CC1)c1cc(F)cnc1OC1CCSCC1 [Example 26, Syn-N-[4-(3,5-Dichloro-2-hydroxy-benzoylamino)-cyclohexyl]-5-fluoro-2-(tetrahydro-thiopyran-4-yloxy)-nicotinamide]
